Among the data in patent US8420681B2, “Dioxo-imidazolidine derivatives, which inhibit the enzyme SOAT-1, and pharmaceutical and cosmetic compositions containing them” (Galderma Research & Development, priority 2009, dated 2013) are IC50 values, retold here.

For orientation: IC50 means the concentration that gives 50% inhibition. A higher IC50 goes with weaker potency in that assay.

For this test, the target named is T1, enzyme ACAT-1 (Homo sapiens, UniProt P35610).
T1 construct: endogenous in cells; host or cells: HepG2
T1 sequence (P35610 1-550): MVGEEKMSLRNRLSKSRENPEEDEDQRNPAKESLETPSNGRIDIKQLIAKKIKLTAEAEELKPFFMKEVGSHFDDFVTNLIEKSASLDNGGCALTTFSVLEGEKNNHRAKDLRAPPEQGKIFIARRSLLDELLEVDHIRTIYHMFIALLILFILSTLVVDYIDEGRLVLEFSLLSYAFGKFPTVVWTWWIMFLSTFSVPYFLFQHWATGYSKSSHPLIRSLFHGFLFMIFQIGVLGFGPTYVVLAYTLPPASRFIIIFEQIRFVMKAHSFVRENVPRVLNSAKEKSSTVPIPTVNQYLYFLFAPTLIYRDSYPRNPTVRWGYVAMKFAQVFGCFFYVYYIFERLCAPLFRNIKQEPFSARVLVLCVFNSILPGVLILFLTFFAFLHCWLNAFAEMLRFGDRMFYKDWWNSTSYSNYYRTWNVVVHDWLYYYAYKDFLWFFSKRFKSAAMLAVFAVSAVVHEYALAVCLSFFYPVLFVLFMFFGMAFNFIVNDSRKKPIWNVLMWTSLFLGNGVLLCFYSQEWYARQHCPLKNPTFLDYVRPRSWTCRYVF
Nature of the test: HepG2 NBD-cholesterol fluorescence test of inhibitory activity towards ACAT-1 (SOAT-1). As to conditions: HepG2 cells, NBD-cholesterol 1 μg/ml, incubation 6 hours at 37° C., fluorescence read (490/540 nm). Type of test: cell-based. How it is done: The compounds (I) according to the invention, and also the pharmaceutically acceptable salts, solvates and/or hydrates thereof, have inhibitory properties on the enzyme SOAT-1. This inhibitory activity on the enzyme SOAT-1 is measured according to a HepG2 primary enzymatic test, as described in Example 23.
The compounds of formula (I) according to the invention were subjected to a test for evaluating their inhibitory activity towards the enzyme ACAT-1, inspired by the following publication: “Identification of ACAT1- and ACAT2-specific inhibitors using a novel, cell based fluorescence assay: individual ACAT uniqueness”, J. Lipid. Res. (2004) vol. 45, pages 378-386.
The principle of this test is based on the use of NBD-cholesterol, a cholesterol analogue whose fluorescence depends on its environment. When this molecule is in a polar environment, it is weakly fluorescent, whereas in a non-polar environment, it is strongly fluorescent. Free NBD-cholesterol becomes inserted in cell membranes and is weakly fluorescent in this polar environment. When NBD-cholesterol is esterified with ACAT, the NBD-cholesterol ester enters non-polar lipid droplets and is then strongly fluorescent.
The method below is applied: HepG2 cells are incubated in the presence of NBD-cholesterol (1 μg/ml) and of the test compound of formula (I) in black 96-well transparent-bottomed plates, at a rate of 30 000 cells per well. After incubation for 6 hours at 37° C. under 5% CO2, the medium is removed by turning upside-down and the cells are washed with twice 100 μl of PBS. After addition of 50 μl of lysis buffer (10 mM NaPO4, 1% Igepal), the plates are shaken for 5 minutes and the fluorescence is read (excitation at 490 nm, emission at 540 nm) on a Fusion machine (Perkin-Elmer).
The compound `CCC(NC(=O)CN1C(=O)N(c2ccc(C)cc2)C2(CCCCC2)C1=O)c1ccc(C)cc1` (stereo not shown) [Compound 13, 2-(2,4-dioxo-1-p-tolyl-1,3-diaza-spiro[4.5]dec-3-yl)-N-(1-p-tolyl-propyl)acetamide] showed an IC50 of 60 nM.
`CC[C@H](NC(=O)CN1C(=O)N(c2ccc(C)cc2)C2(CCCCC2)C1=O)c1ccccc1` [Compound 6, 2-(2,4-dioxo-1-p-tolyl-1,3-diaza-spiro[4.5]dec-3-yl)-N-((S)-1-phenylpropyl)-acetamide] displayed an IC50 of 36 nM.
The compound `Cc1ccc(N2C(=O)N(CC(=O)NC(c3ccccc3C)C(C)C)C(=O)C23CCCCC3)cc1` (stereo not shown) [Compound 9, 2-(2,4-dioxo-1-p-tolyl-1,3-diaza-spiro[4.5]dec-3-yl)-N-(2-methyl-1-o-tolylpropyl)-acetamide] registered a concentration for half-maximal inhibition (IC50) of 100 nM.
On to `CCC(NC(=O)CN1C(=O)N(c2ccc(C)cc2)C2(CCCCC2)C1=O)c1ccccc1` (stereo not shown) [Compound 4, 2-(2,4-dioxo-1-p-tolyl-1,3-diaza-spiro[4.5]dec-3-yl)-N-(1-phenyl-propyl)acetamide], for which the IC50 was found to be 50 nM.
`CCC(NC(=O)CN1C(=O)N(c2ccc(C)cc2)C2(CCCCC2)C1=O)c1cccc(C(F)(F)F)c1` (stereo not shown) [Compound 17, 2-(2,4-dioxo-1-p-tolyl-1,3-diaza-spiro[4.5]dec-3-yl)-N-[1-(3-trifluoromethyl-phenyl)propyl]-acetamide] registered an IC50 of 9 nM.
The compound `CCCC(NC(=O)CN1C(=O)N(c2ccc(C)cc2)C2(CCCCC2)C1=O)c1ccccc1C` (stereo not shown) [Compound 8, 2-(2,4-dioxo-1-p-tolyl-1,3-diaza-spiro[4.5]dec-3-yl)-N-(1-o-tolyl-butyl)acetamide] had a concentration for half-maximal inhibition (IC50) of 31 nM.
Regarding `Cc1ccc(N2C(=O)N(CC(=O)NC(c3ccccc3)C(C)C)C(=O)C23CCCCC3)cc1` (stereo not shown) [Compound 19, 2-(2,4-dioxo-1-p-tolyl-1,3-diaza-spiro[4.5]dec-3-yl)-N-(2-methyl-1-phenylpropyl)-acetamide], the concentration for half-maximal inhibition (IC50) was 23 nM.
